According to patent US7745651B2, “Cationic lipids and methods of use” (Protiva Biotherapeutics, Inc., priority 2004, dated 2010):

Assays:
Neuro2A-G cells = test: Uptake of SNALP containing Cy3-labeled siRNA, fluorescence microscopy; format: cell-based; conditions: 0.5 μg/mL siRNA, 4 hours
Procedure: Uptake of SNALP Containing Cy3-labeled siRNA: SNALP were formulated as previously described, but using siRNA labelled with the fluorophore Cy3 (Cy3-siRNA was a gift of Sirna Therapeutics Inc, Boulder, Colo.). The encapsulation, siRNA concentration, and particle size were determined as described.
For the uptake study, 8×10^4 Neuro2A-G cells were grown overnight on 4-well chamber slides (BD Falcon, Mississauga, ON) in MEM containing 0.25 mg/mL G418. DSDMA, DODMA, DLinDMA, and DLenDMA SNALP containing Cy3-siRNA, as well as naked Cy3-siRNA and unlabeled DSDMA SNALP were placed on the cells at 0.5 μg/mL siRNA. After a 4 hour incubation with the transfection media, the cells were washed with PBS, then with MEM containing G418 and finally with PBS once more. […] The cells were viewed using an Olympus BX60 Microscope modified for fluorescence capabilities. Cy3 fluorescence within the cells was visualized using a rhodamine cube set (Microgen Optics, Redding, Calif.) and the DAPI fluorescence was visualized using a DAPI cube set (Carsen Group, Markham, ON). […] Pictures of the cells were taken at exposure times of ¼ sec when examining Cy3 fluorescence and 1/80 sec when examining DAPI fluorescence.
The uptake process was examined further with the use of fluorescently labelled SNALP. […] The Cy3 fluorescence (red) is most intense in cells treated with DSDMA containing SNALP. […]

[1] = TNS assay, apparent pKa of cationic lipid incorporated in SNALP; conditions: TNS fluorescence, pH varied from 4.5 to 9.5
Procedure: TNS Assay: 20 μM of SNALP lipid and 6 μM of TNS were mixed in a fluorescence cuvette in 2 mL of 20 mM sodium phosphate, 25 mM citrate, 20 mM ammonium acetate and 150 mM NaCl, at a pH that was varied from 4.5 to 9.5. Fluorescence was determined at each pH using a Varian Eclipse Spectrofluorometer (Varian Inc) with settings of λex=322 nm, λem=431 nm. Fluorescence for each system at the various pH was then normalized to the value at pH 4.5. The pKa values are the point at which 50% of the molecules present are charged. By assuming that minimum fluorescence represents zero charge, and maximum fluorescence represents 100% charge, pKa can be estimated by measuring the pH at the point exactly half way between the values of minimum and maximum charge.
TNS is electrostatically attracted to positively charged membranes. Subsequent adsorption to the lipid membrane results in the immediate environment of the TNS becoming more lipophilic, removing the water molecules that otherwise quench TNS fluorescence. Since TNS is more readily absorbed by positively charged membranes, TNS fluorescence is an indicator of positive membrane surface charge. The surface pKa values of each SNALP formulation were determined by varying the local pH in the presence of TNS.

[2] = 31P-NMR of DPPS/cationic lipid MLV, bilayer-to-hexagonal phase transition temperature; format: physicochemical; conditions: MLV of DPPS and cationic lipid 1:1 molar ratio, 10 mM sodium citrate pH 4
Procedure: ^31P Nuclear Magnetic Resonance Spectroscopy: Multilamellar vesicles (MLV) were prepared comprising DPPS and cationic lipid at a molar ratio of 1:1. This was accomplished by drying the lipids from chloroform solution, transferring to 10 mm NMR tubes, and hydrating in 1.5 mL of 10 mM sodium citrate, pH 4. Free induction decays (FIDs) corresponding to 1000 scans were obtained with a 3.0 μs, 60o pulse with a 1 s interpulse delay and a spectral width of 25000 Hz. A gated two-level proton decoupling was used to ensure sufficient decoupling with minimum sample heating. An exponential multiplication corresponding to 50 Hz of line broadening was applied to the FIDs prior to Fourier transformation. The sample temperature (+/−1° C.) was regulated using a Bruker B-VT1000 variable temperature unit. Chemical shifts were referenced to 85% phosphoric acid as an external standard.
The significance of saturation with respect to phase transition temperature was investigated using ^31P-NMR. […] By determining the temperature at which the conversion occurs, the relative ease with which the lipids form the HII phase, their ‘fusogenicity’, can be determined.
MLV were prepared using the anionic lipid DPPS in a 1:1 molar ratio with each cationic lipid. The ^31P-NMR spectra of the MLV were measured at various temperatures. […]

Structure (SMILES)	cellular uptake of Cy3-labeled siRNA (Cy3 fluorescence) (Neuro2A-G cells)	apparent (surface) pKa of cationic lipid in SNALP [1]	bilayer-to-hexagonal (HII) phase transition temperature (Tc) [2]
CC/C=C\C/C=C\C/C=C\CCCCCCCCOCC(CN(C)C)OCCCCCCCC/C=C\C/C=C\C/C=C\CC (centres unmarked) [DLenDMA, 1,2-Dilinolenyloxy-N,N-dimethylaminopropane]	extremely faint	6.7	
CCCCCCCCCCCCCCCCCC[N+](C)(C)CCCCCCCCCCCCCCCCCC [DSDMA, Distearyldimethylammonium]	most intense	~7.6	> 50 °C
